In PubChem BioAssay AID2060627 (Molecular Pharmacology Branch, DTP, NCI, 2025):

System: 156681-154-R-J1-PDC complex spheroid viability
Test: Anticancer human tumor 156681-154-R-J1-PDC patient-derived melanoma cell line growth inhibition [CLK]
Settings: for IC50: curve of first compound; for viability, T/C: stronger effect = lower value
Excerpt: A high-throughput screen of multi-cell type tumor spheroids was designed to identify active combinations of […] and targeted small molecules. Complex spheroids include a stromal component modeled by human endothelial cells (HUVEC) and fibroblasts modeled by human mesenchymal stem cells (MSCs). The concentration ranges selected for each drug and investigational agent were based upon clinically achievable concentrations if the clinical Cmax of the agent was known.
Compounds. The drugs and investigational agents: cirtuvivint (SM08502; NSC835563), CC-671 (NSC850746), vemurafenib (NSC761431), tapotoclax (NSC804041), sotorasib (NSC818433), adagrasib (NSC831453), MRTX-1133 (NSC836407), BAY2416964 (NSC825713), copanlisib (NSC816437), inavolisib (NSC800729), abemaciclib (NSC768073), osimertinib (NSC779217), entinostat (NSC756642), eltanexor (KPT-8602, NSC794443), venetoclax (NSC766270), ceralasertib (NSC777638), bortezomib (NSC756655), olaparib (NSC753686), talazoparib (NSC767125), alisertib (NSC759677), peposertib (NSC802822), gemcitabine (NSC613327), 5-fluorouracil (NSC19893), SN-38 (NSC673596), oxaliplatin (NSC266046), paclitaxel (NSC125973), and doxorubicin (NSC123127), were obtained from the National Cancer Institute (NCI) Developmental Therapeutics Program Chemical Repository. The FDA-approved anticancer drug set is available from the Developmental Therapeutics Program at https://dtp.cancer.gov/organization/dscb/obtaining/available plates.htm. […] The stock solutions were prepared in dimethyl sulfoxide (DMSO, Sigma-Aldrich, St. Louis, MO, cat. D2650), except for the platinum complexes which were prepared in saline (Quality Biological, Gaithersburg, MD, cat. 114-055-101), at 800-fold the tested concentration and stored at -70 degrees C prior to their use. All drugs and investigational agents were tested over a range starting from a high concentration at or near the clinical Cmax and decreasing in half-log increments. If the clinical Cmax for an agent had not been determined, the highest concentration tested was 10 microM.
Cell Culture. All cells were maintained in an incubator at 37 degrees C and 5% CO2 with 95% humidity. The PDC lines were cultured according to standard operating procedures established by the NCI PDMR. Briefly, all PDCs were thawed and cultured in Matrigel-coated flasks prepared with a working solution of 1X Ham's F-12 nutrient mix, without supplementation (Invitrogen, Waltham, MA, cat. 11765054), 100 U/mL penicillin-streptomycin (Invitrogen, cat. 15140122), and 2.5% Matrigel (Corning Inc., Corning, NY, cat. 354248) for the first three passages. The 947758-054-R-J2-PDC line was cultured in 6B/Colon 1A media, which includes advanced DMEM/F-12 (Thermo Fisher Scientific, cat. 12634028), 10 mM HEPES (Thermo Fisher Scientific, cat. 15630080), 1X GlutaMAX supplement (Thermo Fisher Scientific, cat. 35050061), 0.1 mg/mL primocin (InvivoGen, cat. ant-pm-2), 10% defined fetal bovine serum, heat inactivated (HyClone Laboratories Inc., cat. SH30070.03HI), 1.25 mM N-Acetyl-L-cysteine (Sigma-Aldrich, cat. A9165), 10 mM nicotinamide (Sigma-Aldrich, cat. N0636), 1X B-27 supplement (Thermo Fisher Scientific, cat. 17504044), 1X N-2 supplement (Thermo Fisher Scientific, cat. 17502048), and 10 microM Y-27632 dihydrochloride (Tocris Bioscience, cat. 1254). The 876862-298-R-J1-PDC was cultured in 6E media, which includes all 6B/Colon 1A media components plus 50% L-WRN conditioned media (ATCC, cat. CRL-3276), 50 ng/mL recombinant human EGF recombinant protein (hEGF; Thermo Fisher Scientific, cat. PHG0311), 10 ng/mL recombinant human fibroblast growth factor 10 (hGFG-10; PeproTech, cat. 100-26), 1 ng/mL recombinant human fibroblast growth factor 2 (hFGF-2; PeproTech, cat. 100-18B), and 1 µM prostaglandin E2 (PGE2; Tocris, cat. 2296). The 227483-062-R1-J1-PDC line was cultured in Panc media, containing all 6E components except hFGF-2, with the addition of 500 nM SB-431542 (Selleckchem, cat. S1067) and 10 nM gastrin (Tocris, cat. 3006). […]

[1] = second compound 0.0316 µM, first compound 0.0316 µM
[2] = second compound 0.0316 µM, first compound 0.1 µM
[3] = second compound 0.0316 µM, first compound 0.316 µM
[4] = second compound 0.0316 µM, first compound 1 µM
[5] = second compound 0.0316 µM, first compound 3.16 µM
[6] = second compound 0.0316 µM, first compound 10 µM
[7] = second compound 0.1 µM, first compound 0.0316 µM
[8] = second compound 0.1 µM, first compound 0.1 µM
[9] = second compound 0.1 µM, first compound 0.316 µM
[10] = second compound 0.1 µM, first compound 1 µM
[11] = second compound 0.1 µM, first compound 3.16 µM
[12] = second compound 0.1 µM, first compound 10 µM
[13] = second compound 0.316 µM, first compound 0.0316 µM
[14] = second compound 0.316 µM, first compound 0.1 µM
[15] = second compound 0.316 µM, first compound 0.316 µM
[16] = second compound 0.316 µM, first compound 1 µM
[17] = second compound 0.316 µM, first compound 3.16 µM
[18] = second compound 0.316 µM, first compound 10 µM
[19] = second compound 1 µM, first compound 0.0316 µM
[20] = second compound 1 µM, first compound 0.1 µM
[21] = second compound 1 µM, first compound 0.316 µM
[22] = second compound 1 µM, first compound 1 µM
[23] = second compound 1 µM, first compound 3.16 µM
[24] = second compound 1 µM, first compound 10 µM
[25] = second compound 3.16 µM, first compound 0.0316 µM
[26] = second compound 3.16 µM, first compound 0.1 µM
[27] = second compound 3.16 µM, first compound 0.316 µM
[28] = second compound 3.16 µM, first compound 1 µM
[29] = second compound 3.16 µM, first compound 3.16 µM
[30] = second compound 3.16 µM, first compound 10 µM
[31] = second compound 10 µM, first compound 0.0316 µM
[32] = second compound 10 µM, first compound 0.1 µM
[33] = second compound 10 µM, first compound 0.316 µM
[34] = second compound 10 µM, first compound 1 µM
[35] = second compound 10 µM, first compound 3.16 µM
[36] = second compound 10 µM, first compound 10 µM
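Note: spheroids exposed to the agents for seven days.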
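Throughout, for viability, T/C: 100% = DMSO vehicle control viability.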

C#Cc1c(F)ccc2cc(O)cc(-c3ncc4c(N5CC6CCC(C5)N6)nc(OCC56CCCN5CC(F)C6)nc4c3F)c12 (stereo unspecified) + CN1CCN(c2cc(C(=O)Nc3cc4cc(-c5cnn(C)c5)ccc4cn3)ccn2)CC1 was tested, and the IC50 (second compound 0.0316 µM) was > 10000 nM, the IC50 (second compound 0.1 µM) was > 10000 nM and the IC50 (second compound 0.316 µM) was < 31.6 nM. The IC50 (second compound 1 µM) was < 31.6 nM, the IC50 (second compound 3.16 µM) was < 31.6 nM and the IC50 (second compound 10 µM) was < 31.6 nM. For the same molecule, the viability, T/C [1] was 100%, the viability, T/C [2] was 81.5% and the viability, T/C [3] was 97%. It also gave a viability, T/C [4] of 120%, a viability, T/C [5] of 98.2% and a viability, T/C [6] of 119%. For the same molecule, the viability, T/C [7] was 84.4%, the viability, T/C [8] was 86.7% and the viability, T/C [9] was 92.6%. For the same molecule, the viability, T/C [10] was 100%, the viability, T/C [11] was 95.8% and the viability, T/C [12] was 97%. It also gave a viability, T/C [13] of 29%, a viability, T/C [14] of 22.5% and a viability, T/C [15] of 25.9%. It also gave a viability, T/C [16] of 26.7%, a viability, T/C [17] of 31.9% and a viability, T/C [18] of 20.6%. It also gave a viability, T/C [19] of 0.31%, a viability, T/C [20] of 2.37% and a viability, T/C [21] of 0.28%. For the same molecule, the viability, T/C [22] was 0.23%, the viability, T/C [23] was 0.15% and the viability, T/C [24] was 1.07%. It also gave a viability, T/C [25] of 0.15%, a viability, T/C [26] of 0.39% and a viability, T/C [27] of 0.11%. For the same molecule, the viability, T/C [28] was 0.49%, the viability, T/C [29] was 0.15% and the viability, T/C [30] was 0.12%. It also gave a viability, T/C [31] of 0.19%, a viability, T/C [32] of 2.4% and a viability, T/C [33] of 0.37%. For the same molecule, the viability, T/C [34] was 0.17%, the viability, T/C [35] was 0.18% and the viability, T/C [36] was 0.17%.
For C=C(F)C(=O)N1CCN(c2nc(OCC3CCCN3C)nc3c2CCN(c2cccc4cccc(Cl)c24)C3)CC1CC#N (stereo unspecified) + CN1CCN(c2cc(C(=O)Nc3cc4cc(-c5cnn(C)c5)ccc4cn3)ccn2)CC1, the IC50 (second compound 0.0316 µM) was 2590 nM, the IC50 (second compound 0.1 µM) was 1770 nM and the IC50 (second compound 0.316 µM) was < 31.6 nM. The IC50 (second compound 1 µM) was < 31.6 nM, the IC50 (second compound 3.16 µM) was < 31.6 nM and the IC50 (second compound 10 µM) was < 31.6 nM. For the same molecule, the viability, T/C [1] was 101%, the viability, T/C [2] was 107% and the viability, T/C [3] was 108%. It also gave a viability, T/C [4] of 81.1%, a viability, T/C [5] of 44% and a viability, T/C [6] of 0.43%. The viability, T/C [7] was 94.3%, the viability, T/C [8] was 94.6% and the viability, T/C [9] was 91.7%. For the same molecule, the viability, T/C [10] was 79.5%, the viability, T/C [11] was 20% and the viability, T/C [12] was 0.6%. The viability, T/C [13] was 22.1%, the viability, T/C [14] was 24.1% and the viability, T/C [15] was 23.3%. For the same molecule, the viability, T/C [16] was 24.7%, the viability, T/C [17] was 6.76% and the viability, T/C [18] was 1.76%. For the same molecule, the viability, T/C [19] was 0.16%, the viability, T/C [20] was 0.32% and the viability, T/C [21] was 0.25%. For the same molecule, the viability, T/C [22] was 0.59%, the viability, T/C [23] was 0.1% and the viability, T/C [24] was 0.24%. The viability, T/C [25] was 0.12%, the viability, T/C [26] was 1.74% and the viability, T/C [27] was 1.8%. The viability, T/C [28] was 0.12%, the viability, T/C [29] was 0.36% and the viability, T/C [30] was 1.56%. It also gave a viability, T/C [31] of 0.17%, a viability, T/C [32] of 0.19% and a viability, T/C [33] of 1.71%. It also gave a viability, T/C [34] of 0.23%, a viability, T/C [35] of 0.23% and a viability, T/C [36] of 0.8%.
For CC(CO)NC(=O)c1cc(-c2ccc(Cl)cc2)nn(-c2cnn(C)c2)c1=O (stereo unspecified) + CN1CCN(c2cc(C(=O)Nc3cc4cc(-c5cnn(C)c5)ccc4cn3)ccn2)CC1, the IC50 (second compound 0.0316 µM) was > 10000 nM, the IC50 (second compound 0.1 µM) was > 10000 nM and the IC50 (second compound 0.316 µM) was < 31.6 nM. For the same molecule, the IC50 (second compound 1 µM) was < 31.6 nM, the IC50 (second compound 3.16 µM) was < 31.6 nM and the IC50 (second compound 10 µM) was < 31.6 nM. It also gave a viability, T/C [1] of 97.7%, a viability, T/C [2] of 107% and a viability, T/C [3] of 103%. For the same molecule, the viability, T/C [4] was 114%, the viability, T/C [5] was 84.2% and the viability, T/C [6] was 59.6%. For the same molecule, the viability, T/C [7] was 99.3%, the viability, T/C [8] was 94.7% and the viability, T/C [9] was 87.5%. The viability, T/C [10] was 81.8%, the viability, T/C [11] was 67% and the viability, T/C [12] was 56%. For the same molecule, the viability, T/C [13] was 26.8%, the viability, T/C [14] was 38.3% and the viability, T/C [15] was 34.2%. For the same molecule, the viability, T/C [16] was 29.2%, the viability, T/C [17] was 29.1% and the viability, T/C [18] was 21.5%. For the same molecule, the viability, T/C [19] was 0.34%, the viability, T/C [20] was 0.99% and the viability, T/C [21] was 0.36%. It also gave a viability, T/C [22] of 1.64%, a viability, T/C [23] of 1.51% and a viability, T/C [24] of 2.77%. The viability, T/C [25] was 0.25%, the viability, T/C [26] was 0.92% and the viability, T/C [27] was 0.29%. The viability, T/C [28] was 1.68%, the viability, T/C [29] was 0.58% and the viability, T/C [30] was 0.23%. The viability, T/C [31] was 0.29%, the viability, T/C [32] was 0.66% and the viability, T/C [33] was 0.9%. It also gave a viability, T/C [34] of 1.31%, a viability, T/C [35] of 0.62% and a viability, T/C [36] of 1.4%.
